{
  "source": "patent US20090030024A1",
  "about": "“THIAZOLES AS FUNGICIDES” (priority 2005, published 2009)",
  "data": [
    {"assay": "logP determination by retention times (calibration with alkan-2-ones)", "conditions": "not given", "values": [
      {"smiles": "Cc1nc(N)sc1-c1ccnc(Nc2ccc(F)cc2)n1", "note": "[Example 208, 4-(2-amino-4-methyl-1,3-thiazol-5-yl)-N-(4-fluorophenyl)pyrimidine-2-amine]", "chromatographic logP": 1.56},
      {"smiles": "Cc1nc(C(F)(F)F)c(-c2ccnc(Nc3cccc([N+](=O)[O-])c3)n2)s1", "note": "[Example 311, 4-[2-methyl-4-(trifluoromethyl)-1,3-thiazol-5-yl]-N-(3-nitrophenyl)pyrimidine-2-amine]", "chromatographic logP": 3.5},
      {"smiles": "Cc1nc(C(=O)N(C)C)sc1-c1ccnc(Nc2ccccc2)n1", "note": "[Example 373, 5-(2-anilinopyrimidin-4-yl)-N,N,4-trimethyl-1,3-thiazole-2-carboxamide]", "chromatographic logP": 2.72},
      {"smiles": "CC(=O)c1cccc(Nc2nccc(-c3sc(C(C)C)nc3C)n2)c1", "note": "[Example 10, 1-(3-{[4-(2-isopropyl-4-methyl-1,3-thiazol-5-yl)pyrimidin-2-yl]amino}phenyl)ethanone]", "chromatographic logP": 3.1},
      {"smiles": "Cc1nc(N(C)C2CC2)sc1-c1ccnc(Nc2ccccc2)n1", "note": "[Example 341, 4-{2-[cyclopropyl(methyl)amino]-4-methyl-1,3-thiazol-5-yl}-N-phenylpyrimidine-2-amine]", "chromatographic logP": 2.43},
      {"smiles": "CCOC(=O)c1cccc(Nc2nccc(-c3sc(C4CC4)nc3C)n2)c1", "note": "[Example 374, ethyl-3-{[4-(2-cyclopropyl-4-methyl-1,3-thiazol-5-yl)pyrimidin-2-yl]amino}benzoate]", "chromatographic logP": 3.56}
    ]},
    {"assay": "logP determination by retention times (calibration with alkan-2-ones)", "conditions": "logP, * HPLC reversed-phase C18, 40° C., mobile phase 0.1% aqueous formic acid and acetonitrile, linear gradient 10% to 95% acetonitrile", "values": [
      {"smiles": "Cc1nc(C2CC2)sc1-c1ccnc(Nc2cccc(CNC(=O)OC(C)(C)C)c2)n1", "note": "[Example 624, tert-butyl-(3-{[4-(2-cyclopropyl-4-methyl-1,3-thiazol-5-yl)pyrimidin-2-yl]amino}benzyl)carbamate]", "chromatographic logP": 2.87},
      {"smiles": "Cc1nc(C)c(-c2ccnc(Nc3ccc4c(c3)OCO4)n2)s1", "note": "[Example 616, N-1,3-benzodioxol-5-yl-4-(2,4-dimethyl-1,3-thiazol-5-yl)pyrimidine-2-amine]", "chromatographic logP": 2.44},
      {"smiles": "COCCCNc1nc(C)c(-c2ccnc(Nc3ccccc3)n2)s1", "note": "[Example 725, 4-{2-[(3-methoxypropyl)amino]-4-methyl-1,3-thiazol-5-yl}-N-phenylpyrimidine-2-amine]", "chromatographic logP": 1.81},
      {"smiles": "CCc1nc(C)c(-c2ccnc(Nc3ccc(C)c(C)c3)n2)s1", "note": "[Example 718, N-(3,4-dimethylphenyl)-4-(2-ethyl-4-methyl-1,3-thiazol-5-yl)pyrimidine-2-amine]", "chromatographic logP": 3.71},
      {"smiles": "CCc1nc(C)c(-c2ccnc(Nc3cccc(NC(C)=O)c3)n2)s1", "note": "[Example 415, N-(3-{[4-(2-ethyl-4-methyl-1,3-thiazol-5-yl)pyrimidin-2-yl]amino}phenyl)acetamide]", "chromatographic logP": 2.05},
      {"smiles": "COc1cccc(Nc2nccc(-c3sc(NCC4CCCO4)nc3C)n2)c1", "note": "(stereo not shown) [Example 451, N-(3-methoxyphenyl)-4-{4-methyl-2-[(tetrahydrofuran-2-ylmethyl)amino]-1,3-thiazol-5-yl}pyrimidine-2-amine]", "chromatographic logP": 1.94}
    ]},
    {"assay": "logP determination by retention times (calibration with alkan-2-ones)", "conditions": "logP, values marked *: HPLC on reversed-phase C 18, 40° C., mobile phase 0.1% aqueous formic acid and acetonitrile, linear gradient 10% to 95% acetonitrile", "values": [
      {"smiles": "CCc1nc(C)c(-c2nc(Nc3ccc(S(=O)(=O)N(C)C)cc3)ncc2Br)s1", "note": "[Example 921, 4-{[5-bromo-4-(2-ethyl-4-methyl-1,3-thiazol-5-yl)pyrimidin-2-yl]amino}-N,N-dimethylbenzenesulphonamide]", "chromatographic logP": 3.36},
      {"smiles": "Cc1nc(C(C)C)sc1-c1nc(Nc2ccccc2)ncc1Br", "note": "[Example 904, 5-bromo-4-(2-isopropyl-4-methyl-1,3-thiazol-5-yl)-N-phenylpyrimidine-2-amine]", "chromatographic logP": 4.32},
      {"smiles": "COCCCNc1nc(C)c(-c2ccnc(Nc3ccc(NC(C)=O)cc3)n2)s1", "note": "[Example 854, N-{4-[(4-{2-[(3-methoxypropyl)amino]-4-methyl-1,3-thiazol-5-yl}pyrimidin-2-yl)amino]phenyl}acetamide]", "chromatographic logP": 1.4}
    ]},
    {"assay": "logP determination by retention times (calibration with alkan-2-ones)", "conditions": "values marked *: HPLC on reversed-phase C 18, 40° C., mobile phase 0.1% aqueous formic acid and acetonitrile, linear gradient 10% to 95% acetonitrile", "values": [
      {"smiles": "CC(=O)Nc1ccc(Nc2nccc(-c3sc(N(C)C)nc3C)n2)cc1", "note": "[Example 862, N-[4-({4-[2-(dimethylamine)-4-methyl-1,3-thiazol-5-yl]pyrimidin-2-yl}amino)phenyl]acetamide]", "logP": "1.33*"}
    ]}
  ]
}
